Assay results taken from PMC11440508, “Dually Labeled Neurotensin NTS1R Ligands for Probing Radiochemical and Fluorescence-Based Binding Assays” (Journal of Medicinal Chemistry, 2024).

How the values were obtained:
NTS1R [1] = target: T1, NTS1R (Homo sapiens, UniProt P30989); experiment: Radiochemical competition binding, suspended CHO-hNTS1R cells; details: labeled probe [^3H]13 (1.8 nM), 90 min, 23 °C, read-out: RC cell suspension: pKi ± SEM (converted)
NTS1R [2] = target: T1, NTS1R; experiment: Radiochemical association and dissociation kinetics, adherent CHO-hNTS1R cells; assay type: binding
Description: (§1) Binding of both ligands, [^3H]13 and [^3H]18, was studied at adherent and suspended intact CHO-hNTS1R cells, and binding of [^3H]13 was additionally studied using CHO-hNTS1R cell membrane preparations (saturation and competition binding, kinetic studies). Furthermore, saturation binding experiments were performed with both ligands at intact adherent HT-29 cells. All experiments were performed in triplicate except for dissociation experiments performed with suspended cells in 50 mL flacon tubes (performed in duplicate). To reduce radioligand consumption in the aforementioned experiments, [^3H]13 and [^3H]18 were 1:1 diluted with 13 and 18, respectively (for the purpose of easier reading these mixtures are denoted "[^3H]13" and "[^3H]18"in the following). All samples were incubated at 23 ± 1 °C in the dark under gentle shaking (incubation times are outlined below). DPBS1 served as binding buffer throughout. In the case of experiments performed with cell suspensions, CHO-hNTS1R cells were seeded in T75 culture flasks 3–4 days prior to the experiment. On the day of the experiment, cells were detached by trypsinization, suspended in DPBS1 and centrifuged at 200g at rt for 5 min. Cells were resuspended in binding buffer and the cell density was adjusted to 1.5 × 10^5 to 2.5 × 10^5 cells/mL. Samples involving suspended cells or membrane preparations were prepared and incubated in 96-well polypropylene plates (Brand 701330, Wertheim, Germany) or in 50 mL polypropylene falcon tubes (Sarstedt), and the same filtration procedure for separating free radioligand from cell- or membrane bound radioligand was applied for all kind of binding experiments: after completed incubation, cells or cell membranes were collected on GF/C filter mats (0.26 mm; Whatman, Maidstone, U.K.) (pretreated with 0.3% polyethylenimine for 30 min) using an in-house manufactured harvester for 96-well plates (precision engineering workshop of the University of Regensburg, Regensburg, Germany), and the wells of the plate and the cells on the filter mat were immediately washed twice with ice-cold PBS (2 × 200 μL) (note: when samples were incubated in falcon tubes, 200-μL aliquots were transferred to the wells of a 96-well polypropylene plate after the incubation period, immediately followed by the filtration procedure). Filter pieces for each well were punched out and transferred into 1450–401 96-well sample plates (PerkinElmer, Rodgau, Germany), followed by the addition of Rotiscint Routine (Carl Roth, Karlsruhe, Germany) (200 μL). The plates were sealed with transparent sealing tape (Greiner EASYseal, part no. 676001, Greiner Bio-One) and shaken in the dark overnight before measurement of the radioactivity (dpm) using a MicroBeta2 plate counter equipped with six pairs of photomultiplier tubes (PerkinElmer).
For experiments involving adherent cells, CHO-hNTS1R (25,000 cells per well) or HT-29 (35,000 cells per well) cells were seeded one day prior to the experiment in white 96-well plates with clear bottom (VWR 732–3740). On the day of the experiment, the medium was aspirated and the cells (confluency: 70–90%) were washed with PBS (200 μL) followed by covering with DPBS1 (160 μL) and the addition of the ligands as outlined below. After completed incubation, the liquid was aspirated and the wells were washed twice with ice-cold PBS (200 μL) followed by the addition of lysis solution (urea (8 M), acetic acid (3 M) and Triton-X (1%) in water) (25 μL). After shaking for at least 20 min, liquid scintillator (UltimaGold, PerkinElmer) (200 μL) was added and the plates were sealed with a transparent sealing tape (permanent seal for microplates, PerkinElmer, prod. no. 1450–461). The sealed plates were turned upside down several times to achieve complete mixing of scintillator and lysis solution and were kept in the dark for at least 3 h before measurement of the radioactivity (dpm) with the MicroBeta2 plate counter. […]

NTS1R [3] = target: T1, NTS1R; experiment: Radiochemical association and dissociation kinetics, suspended CHO-hNTS1R cells; assay type: binding
Description: as §1
To start the association, 20 μL of an 18 nM solution of [^3H]13 or 20 μL of a 12 nM solution of [^3H]18 in DPBS1 (final concentrations: 1.8 or 1.2 nM) were added. The samples of the different time points were prepared in reversed order (longest incubation time first, shortest incubation time last) so that the cells of all samples could be harvested simultaneously. The time span for sample incubation was 1–180 min. Adherent cells: 96-well white/clear bottom plates with adherent cells were prefilled with DPBS1 (160 μL) after initial washing of the cells. […] To start the association, 20 μL of a 13 nM solution of [^3H]13 or 20 μL of an 11 nM solution of [^3H]18 in DPBS1 (final concentrations: 1.3 or 1.1 nM) were added. When the incubation time was reached, all liquid was removed by suction followed by washing (2 × ice-cold PBS) and cell lysis. The samples of the different time points were prepared in reversed order (longest incubation time first, shortest incubation time last) so that the cells of all samples could be washed and lysed simultaneously. […]

NTS1R [4] = target: T1, NTS1R; experiment: Radiochemical saturation binding, adherent HT-29 cells; details: 23 °C
Description: Binding of both ligands, [^3H]13 and [^3H]18, was studied at adherent and suspended intact CHO-hNTS1R cells, and binding of [^3H]13 was additionally studied using CHO-hNTS1R cell membrane preparations (saturation and competition binding, kinetic studies). Furthermore, saturation binding experiments were performed with both ligands at intact adherent HT-29 cells. All experiments were performed in triplicate except for dissociation experiments performed with suspended cells in 50 mL flacon tubes (performed in duplicate). To reduce radioligand consumption in the aforementioned experiments, [^3H]13 and [^3H]18 were 1:1 diluted with 13 and 18, respectively (for the purpose of easier reading these mixtures are denoted "[^3H]13" and "[^3H]18"in the following). All samples were incubated at 23 ± 1 °C in the dark under gentle shaking (incubation times are outlined below). DPBS1 served as binding buffer throughout. In the case of experiments performed with cell suspensions, CHO-hNTS1R cells were seeded in T75 culture flasks 3–4 days prior to the experiment. […] The plates were sealed with transparent sealing tape (Greiner EASYseal, part no. 676001, Greiner Bio-One) and shaken in the dark overnight before measurement of the radioactivity (dpm) using a MicroBeta2 plate counter equipped with six pairs of photomultiplier tubes (PerkinElmer). […]

T1 sequence (P30989 whole entry): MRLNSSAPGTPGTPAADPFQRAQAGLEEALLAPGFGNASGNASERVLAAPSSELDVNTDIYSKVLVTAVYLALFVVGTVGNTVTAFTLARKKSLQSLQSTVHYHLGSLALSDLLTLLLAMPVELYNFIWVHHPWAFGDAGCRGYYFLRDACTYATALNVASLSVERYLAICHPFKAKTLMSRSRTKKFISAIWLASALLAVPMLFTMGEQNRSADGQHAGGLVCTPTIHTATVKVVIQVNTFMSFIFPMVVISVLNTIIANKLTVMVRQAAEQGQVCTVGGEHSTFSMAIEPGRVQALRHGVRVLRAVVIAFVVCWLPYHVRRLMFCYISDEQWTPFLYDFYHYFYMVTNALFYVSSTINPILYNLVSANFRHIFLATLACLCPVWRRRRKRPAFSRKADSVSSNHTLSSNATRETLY

| Structure (SMILES) | Ki (NTS1R [1]) | koff (NTS1R [2]; adherent CHO-hNTS1R cells, 23 °C, read-out: koff [min^–1] (converted)) | kobs(slow) [min^–1] (NTS1R [2]; adherent CHO-hNTS1R cells, biphasic exponential fit) | kon (NTS1R [2]; adherent CHO-hNTS1R cells, calculated from koff, kobs(fast) and ligand concentration, read-out: kon(fast) [min^–1 nM^–1] (converted)) | Kd (NTS1R [2]; adherent CHO-hNTS1R cells, koff/kon(fast), read-out: Kd(kin)) | kobs(fast) [min^–1] (NTS1R [2]; adherent CHO-hNTS1R cells, monophasic fit of initial association phase, 1.3 nM [^3H]13 or […] [^3H]18) | Proportion of fast kinetic component (association) (NTS1R [2]; adherent cells) | Proportion of slow kinetic component (association) (NTS1R [2]; adherent cells) | koff (NTS1R [3]; suspended CHO-hNTS1R cells (50 mL falcon tubes), 23 °C, read-out: koff [min^–1] (converted)) | kobs(slow) [min^–1] (NTS1R [3]; suspended CHO-hNTS1R cells, biphasic exponential fit) | kon (NTS1R [3]; suspended CHO-hNTS1R cells, calculated from koff, kobs(fast) and ligand concentration, read-out: kon(fast) [min^–1 nM^–1] (converted)) | Kd (NTS1R [3]; suspended CHO-hNTS1R cells, koff/kon(fast), read-out: Kd(kin)) | kobs(fast) [min^–1] (NTS1R [3]; suspended CHO-hNTS1R cells, monophasic fit of initial association phase, 1.8 nM [^3H]13 or […] [^3H]18) | Proportion of fast kinetic component (association) (NTS1R [3]; suspended cells) | Proportion of slow kinetic component (association) (NTS1R [3]; suspended cells) | Kd (NTS1R [4]) |
| --- | --- | --- | --- | --- | --- | --- | --- | --- | --- | --- | --- | --- | --- | --- | --- | --- |
| CCC(=O)NCCCCNC(=O)N=C(N)NCCC[C@H](NC(=O)[C@@H]1CCCN1C(=O)[C@@H](NC(=O)CCc1cn(CCCNC(=O)c2ccc(-c3c4ccc(=[N+](C)C)cc-4oc4cc(N(C)C)ccc34)c(C(=O)[O-])c2)nn1)C1CCNCC1)C(=O)N[C@@H](CCCNC(=N)N)C(=O)N1CCC[C@H]1C(=O)N[C@@H](Cc1ccc(O)cc1)C(=O)N[C@H](C(=O)N[C@@H](CC(C)C)C(=O)O)[C@@H](C)CC [Compound 13, N^α-(3-(1-N-((1-Carboxylato-2-(6-(dimethylamino)-3-(dimethyliminio)-3H-xanthen-9-yl)phen-5-yl)1-oxomethyl)aminoprop-3-yl-1H-1,2,3-triazol-4-yl)propanoyl)-2-(piperidin-4-yl)-Gly-Pro-N^ω-[(4-(N-propanoyl)aminobutyl)aminocarbonyl]Arg-Arg-Pro-Tyr-Ile-Leu Tris(hydrotrifluoroacetate)] | 4.68 nM |  |  |  |  |  |  |  |  |  |  |  |  |  |  |  |
| CCC(=O)NCCCCNC(=O)NC(=N)NCCC[C@H](NC(=O)[C@@H]1CCCN1C(=O)[C@@H](NC(=O)CCc1cn(CCCNC(=O)c2ccc(-c3c4ccc(=[N+](C)C)cc-4oc4cc(N(C)C)ccc34)c(C(=O)[O-])c2)nn1)C1CCNCC1)C(=O)N[C@@H](CCCNC(=N)N)C(=O)N1CCC[C@H]1C(=O)N[C@@H](Cc1ccc(O)cc1)C(=O)N[C@H](C(=O)N[C@@H](CC(C)C)C(=O)O)[C@@H](C)CC [[^3H]13] |  | 0.000233 s⁻¹ | 0.011 ± 0.001 ^b min^–1 | 5.5e+06 M⁻¹ s⁻¹ | 0.41 ± 0.24 nM | 0.57 ± 0.08 ^a min^–1 | 19% | 81% | 0.0006 s⁻¹ | 0.051 ± 0.001 ^b min^–1 | 1.35e+07 M⁻¹ s⁻¹ | 0.044 ± 0.02 nM | 1.5 ± 0.3 ^a min^–1 | 21% | 79% | 1.2 ± 0.1 nM |
